Tests used:
NTHi Nuc [1] = molecular target: T1, NTHi Nuc (Haemophilus influenzae, UniProt Q57519); test: thermal unfolding by dynamic light scattering; format: binding; settings: pH 7; excess pdTp; onset temperature with ligand, not a shift; ramp 1.0 °C/min
T1 construct: gene HI_1296; N-terminal 6xHis tag (pET151/D-TOPO) cleaved with TEV protease; E. coli BL21*(DE3)
Text: thermal unfolding by dynamic light scattering on NTHi Nuc

NTHi Nuc [2] = molecular target: T1, NTHi Nuc; test: FRET nuclease assay, Cy3/BHQ2 single-stranded 30-mer DNA; format: biochemical; settings: competitive (stated); pdTp 0.015 and 0.03 nM; enzyme 0.035 nM; 2 µM FRET substrate; 26 °C

T1 sequence (Q57519 21-178): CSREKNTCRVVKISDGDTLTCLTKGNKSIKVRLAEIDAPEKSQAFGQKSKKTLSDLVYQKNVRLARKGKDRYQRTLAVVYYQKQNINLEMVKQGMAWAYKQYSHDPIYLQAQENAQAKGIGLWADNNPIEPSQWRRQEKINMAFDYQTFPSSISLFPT

With Cc1cn([C@H]2C[C@H](OP(=O)(O)O)[C@@H](COP(=O)(O)O)O2)c(=O)[nH]c1=O [thymidine 3,5-bisphosphate] the Tonset (NTHi Nuc [1]) was 48.1 ± 1.45 °C and the “FRET nuclease assay, Cy3/BHQ2 single-stranded 30-mer DNA” value (NTHi Nuc [2]) was “Half and equimolar concentrations of pdTp impacted initial rates of endonuclease activity”.

Reference: PMC5944969, “Characterization of a nontypeable Haemophilus influenzae thermonuclease” (PLoS ONE, 2018)
